The text below walks through data of PubChem BioAssay (NCI).

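96-well plates; 48 h exposure; 5 concentrations. Endpoints by linear interpolation between flanking doses. Not reached: highest tested concentration assigned. TGI denotes the concentration required for complete inhibition of growth.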

Among the test systems are OVCAR-3 ovarian; UACC-62 melanoma; UO-31 renal; T-47D breast; OVCAR-5 ovarian; A549 NSCLC; CCRF-CEM leukemia; SK-MEL-2 melanoma; COLO 205 colon; SF-295 CNS.
Common to all, as to assay: growth of human tumour cells (NCI), 48 h

With `O=c1c2c(no[n+]2[O-])c2ccccc2n1-c1ccccc1`, the TGI was 19.8 µM in the assay on OVCAR-3 ovarian; 13.7 µM in the assay with UACC-62 melanoma; 16.6 µM in the assay with UO-31 renal; 23.6 µM in the assay with T-47D breast; 21.9 µM in the assay on OVCAR-5 ovarian; 35.1 µM with A549 NSCLC. In addition, the TGI in the assay with CCRF-CEM leukemia was 7.21 µM; with SK-MEL-2 melanoma it was 18.8 µM; with COLO 205 colon, 20.3 µM; in the assay on SF-295 CNS, 23.5 µM.

In the case of `O=c1onc2n1-c1cc(Cl)ccc1C(=S)N1CSCC21` (stereo not given), the TGI with OVCAR-3 ovarian, in the assay on UACC-62 melanoma, with UO-31 renal, in the assay with T-47D breast, in the assay on OVCAR-5 ovarian and with A549 NSCLC was over 100 µM throughout. Besides, the TGI in the assay with CCRF-CEM leukemia, in the assay on SK-MEL-2 melanoma, in the assay on COLO 205 colon and in the assay on SF-295 CNS was over 100 µM throughout.

Regarding `Cc1ccsc1/C=N/Nc1cnccn1`, the TGI in the assay with OVCAR-3 ovarian, in the assay with UACC-62 melanoma, with UO-31 renal, with T-47D breast, in the assay with OVCAR-5 ovarian and in the assay with A549 NSCLC was over 100 µM in each case. The TGI with CCRF-CEM leukemia, in the assay with SK-MEL-2 melanoma, in the assay with COLO 205 colon and in the assay on SF-295 CNS was over 100 µM in each case.

On to `O=C(O)c1cccc(S(=O)(=O)NN2C(=O)CSC2c2ccc(Cl)cc2Cl)c1` (stereo not given), for which the TGI is over 100 µM with OVCAR-3 ovarian; 86.3 µM with UACC-62 melanoma; over 100 µM in the assay with UO-31 renal; over 100 µM in the assay with T-47D breast; over 100 µM in the assay with OVCAR-5 ovarian; over 100 µM in the assay with A549 NSCLC. In addition, the TGI in the assay on CCRF-CEM leukemia, in the assay with SK-MEL-2 melanoma, with COLO 205 colon and in the assay with SF-295 CNS was over 100 µM throughout.
